A value given as a limit tells only on which side of the number the result lay.

For one assay, the target named is TrkC kinase (Homo sapiens, UniProt Q16288). Nature of the assay: TrkC kinase biochemical activity assay (similar to TrkA assay). The conditions noted are these: read-out: Biochemical Inhibition IC50 TrkC. The method, then: In one assay the biochemical activity IC50 values are determined with respect to inhibition of TrkA kinase activity, where inhibition of phosphorylation of a peptide substrate is measured as a function of compound concentration. Compounds to be tested, dissolved in DMSO (1 μL), are added to a white 384-well plate (Costar #3705). Working stocks of TrkA kinase (UBI), biotin-(E4Y)10 substrate (Upstate Biotech, Cat#12-440), and ATP (Sigma, Cat#A-3377) are prepared in 25 mM Hepes pH 7.5, 10 mM MnCl2, 1 mM DTT, 0.01% BSA, and 0.01% Tween-20. All components are added to the 384-well plate for a final concentration of 1 ng/well TrkA, 30 nM biotin-(E4Y)10 and 100 μM ATP in a volume of 20 μL. Each sample is at 5% DMSO. The plate is shaken for 1 minute at 1200 rpm, spun for 1 minute at 1000 rpm, then incubated for 40 minutes at room temperature. Just before use, working stocks of donor and acceptor beads from the AlphaScreen PY20 Detection Kit (PerkinElmer, Cat#676601M) are prepared in 25 mM Hepes pH 7.5, 100 mM EDTA. 0.01% BSA. Donor Beads solution (Streptavidin beads) is added (5 μL) to each well to final bead concentration of 10 μg/mL. The plate is incubated at room temperature for 20 minutes. Acceptor Beads solution (PY20 coated beads) are then added to each well (5 μL) to a final concentration of bead at 10 μg/mL. The plates are incubated at room temperature for 60 minutes. Fluorescence signal is recorded on the Envision reader. Phosphorylated substrate results in binding of the PY20 antibody and association of the donor and acceptor beads such that signal correlates with kinase activity. The signal vs. compound concentration is used to determine the IC50. Similar assays are used for TrkB and Trk C kinase.
Sequence of TrkC kinase (Q16288 32-839): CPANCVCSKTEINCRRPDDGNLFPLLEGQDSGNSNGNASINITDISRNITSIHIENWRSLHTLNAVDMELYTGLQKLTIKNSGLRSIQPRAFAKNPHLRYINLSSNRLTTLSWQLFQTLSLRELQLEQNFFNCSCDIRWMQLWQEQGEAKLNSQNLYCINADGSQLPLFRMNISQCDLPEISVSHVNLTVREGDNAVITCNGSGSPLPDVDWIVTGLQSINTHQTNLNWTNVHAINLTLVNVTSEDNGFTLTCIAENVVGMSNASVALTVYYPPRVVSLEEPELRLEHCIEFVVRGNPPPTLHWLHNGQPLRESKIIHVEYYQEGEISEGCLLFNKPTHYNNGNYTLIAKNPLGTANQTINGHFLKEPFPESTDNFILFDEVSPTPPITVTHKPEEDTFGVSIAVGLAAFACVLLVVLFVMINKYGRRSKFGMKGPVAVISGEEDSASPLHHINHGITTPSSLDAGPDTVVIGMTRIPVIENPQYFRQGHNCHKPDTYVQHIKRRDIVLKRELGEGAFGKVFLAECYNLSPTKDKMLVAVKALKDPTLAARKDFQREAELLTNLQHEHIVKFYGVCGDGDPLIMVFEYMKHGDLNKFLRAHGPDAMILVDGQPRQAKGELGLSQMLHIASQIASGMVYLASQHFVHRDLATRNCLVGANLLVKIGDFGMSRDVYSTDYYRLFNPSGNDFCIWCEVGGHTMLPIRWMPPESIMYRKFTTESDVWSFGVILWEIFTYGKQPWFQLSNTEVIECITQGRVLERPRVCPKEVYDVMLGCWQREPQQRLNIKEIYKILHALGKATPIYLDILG

In a further assay the target is CYP3A4(BQ) (Homo sapiens, UniProt P08684). Nature of the assay: CYP3A4(BQ) inhibition. The assay is classed as in vitro ADME. The conditions noted are these: CYP3A4, substrate BQ; read-out: Cyp IC50 3A4(BQ). In short, it runs like this:
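After 30 min incubation at 37° C, plates were read on a Tecan Safire 2 at 409 ex/460 em, and IC50 values came from signal plotted against compound concentration. Enzyme and substrate were sourced from BD Biosciences. The cofactor mix held 1.3% NADPH Regeneration system Solution A, 1.04% Solution B, 5% acetonitrile and 0.05% DMSO.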

A further assay deals with BCR-FMS BaF3 cells. Nature of the assay: Splenomegaly mouse model, BCR-FMS BaF3 cells. The conditions noted are these: dosed once per day at 10 mg per kg. In kind it is in vivo. As for the experimental part: (§1) BaF3 cells are engineered with any of BCR-FMS, BCR-TRK1 or BCR-TRK2 to assess in vivo inhibitory effects of Fms, TrkA or TrkB inhibition, respectively. BaF3 cells are maintained in growth media (RPMI containing 10% FBS, 1% PenStrep, 1% NEAA, and 1% L-Glutamine, supplemented with 5% murine IL-3 and 1 mg/mL G418). Four days prior to start, 2×10^6 cells are inoculated into a T150 vented flask using the growth media and incubated at 37° C. in 5% CO2 for three days. One day prior to start, cells are collected by centrifugation and are suspended in growth media without IL-3. On the day of cell implant, the cells are collected by centrifugation, rinsed 3×20 mL with RPMI, then are suspended in 5.4 mL of media and counted, then adjusted with additional RPMI as needed to give 5×10^7 cells/mL. On day 1, female nu/nu mice at 5-6 weeks of age are injected intravenously with BaF3 cells injected injecting 0.1 mL (5×10^6) cells in the tail vein (mice without cell injected are included as control group). Compound stocks in dimethylsulfoxide are stored at room temperature protected from light. Stocks are diluted prior to dosing, diluting 22 μL of compound stock into 858 μL of diluent (or 50 μL into 1950 μL) to provide vehicle of 1.0% Polysorbate 80, 0.5% hydroxypropyl methyl cellulose, with final dimethylsulfoxide at 2.5% in all dosing suspensions and vehicle control. Dosing suspension is prepared prior to use, mixing by inversion and sonication in a water bath to make a uniform suspension. On days 10-18, mice are treated with vehicle only or the desired level of compound in vehicle, ˜0.2 mL per 25 gm mouse, once a day by oral gavage, or in some instances, twice per day. On day 18, mice are administered a final dose and two hours later a plasma sample is taken. At four hours following the final dose, mice are sacrificed, an additional plasma sample is collected and mouse spleens are removed and weighed. The average spleen weight of vehicle control group mice is compared to the average spleen weight of the test compound mice. Percent spleen growth inhibition is calculated as 100×[(spleen weight vehicle control-spleen weight test compound)/spleen weight vehicle control]. In some instances, the compounds were not tested in all of the assays as indicated by NA in the table below.

The test system of a further assay is BCR-TRK2 BaF3 cells. Nature of the assay: Splenomegaly mouse model, BCR-TRK2 BaF3 cells. In kind it is in vivo. The conditions noted are these: dosed once per day at 10 mg per kg. The method, then:
as §1

Sequence of CYP3A4(BQ) (P08684 whole entry): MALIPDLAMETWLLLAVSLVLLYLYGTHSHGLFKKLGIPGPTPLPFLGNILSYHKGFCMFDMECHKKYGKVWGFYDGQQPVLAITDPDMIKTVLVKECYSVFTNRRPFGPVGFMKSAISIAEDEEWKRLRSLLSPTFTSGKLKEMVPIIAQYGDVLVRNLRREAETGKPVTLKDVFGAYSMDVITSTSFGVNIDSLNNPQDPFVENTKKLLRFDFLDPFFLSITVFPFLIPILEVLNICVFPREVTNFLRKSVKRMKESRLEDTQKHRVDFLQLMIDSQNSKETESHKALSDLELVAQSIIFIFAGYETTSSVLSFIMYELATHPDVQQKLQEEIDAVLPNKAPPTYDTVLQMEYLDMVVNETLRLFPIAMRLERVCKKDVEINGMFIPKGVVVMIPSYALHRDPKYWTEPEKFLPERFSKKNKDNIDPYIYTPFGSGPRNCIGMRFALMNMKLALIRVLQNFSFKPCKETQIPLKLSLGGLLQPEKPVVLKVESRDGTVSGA

Usually IC50 stands for the midpoint of a concentration-inhibition curve. Consider `COc1ccc(Nc2ncc(Cc3c[nH]c4ncc(C)cc34)cn2)cn1` [Compound P-3020, (6-Methoxy-pyridin-3-yl)-[5-(5-methyl-1H-pyrrolo[2,3-b]pyridin-3-ylmethyl)-pyrimidin-2-yl]-amine], for which the IC50 at TrkC kinase was < 1 µM. As for `COc1ccc(Nc2ncc(Cc3c[nH]c4ncc(C)cc34)cn2)cc1` [Compound P-3021, (4-Methoxy-phenyl)-[5-(5-methyl-1H-pyrrolo[2,3-b]pyridin-3-ylmethyl)-pyrimidin-2-yl]-amine], the IC50 at TrkC kinase is < 1 µM. Still for that read-out and setting: the value for `COc1cc(Nc2ncc(Cc3c[nH]c4ncc(C)cc34)cn2)ccc1F` [Compound P-3022, (4-Fluoro-3-methoxy-phenyl)-[5-(5-methyl-1H-pyrrolo[2,3-b]pyridin-3-ylmethyl)-pyrimidin-2-yl]-amine] was < 1 µM; that for `CCCOc1ccc(Nc2ncc(Cc3c[nH]c4ncc(C)cc34)cn2)cc1` [Compound P-3024, [5-(5-Methyl-1H-pyrrolo[2,3-b]pyridin-3-ylmethyl)-pyrimidin-2-yl]-(4-propoxy-phenyl)-amine] was > 1 µM; that for `CCc1ccc(Nc2ncc(Cc3c[nH]c4ncc(C)cc34)cn2)cc1` [Compound P-3025, (4-Ethyl-phenyl)-[5-(5-methyl-1H-pyrrolo[2,3-b]pyridin-3-ylmethyl)-pyrimidin-2-yl]-amine] was < 0.01 µM. Turning to `CCOc1ccc(Nc2ncc(Cc3c[nH]c4ncc(C)cc34)cn2)cc1` [Compound P-3026, (4-Ethoxy-phenyl)-[5-(5-methyl-1H-pyrrolo[2,3-b]pyridin-3-ylmethyl)-pyrimidin-2-yl]-amine], the IC50 at TrkC kinase is < 0.1 µM. With `Cc1cnc2[nH]cc(Cc3cnc(Nc4cc(-c5ccc(F)cc5)n[nH]4)nc3)c2c1` [Compound P-3028, [5-(4-Fluoro-phenyl)-2H-pyrazol-3-yl]-[5-(5-methyl-1H-pyrrolo[2,3-b]pyridin-3-ylmethyl)-pyrimidin-2-yl]-amine], the IC50 at TrkC kinase was < 0.1 µM. `Cc1cnc2[nH]cc(Cc3cnc(Nc4cc(C(C)(C)C)n[nH]4)nc3)c2c1` [Compound P-3029, (5-tert-Butyl-2H-pyrazol-3-yl)-[5-(5-methyl-1H-pyrrolo[2,3-b]pyridin-3-ylmethyl)-pyrimidin-2-yl]-amine]: the IC50 on TrkC kinase was < 1 µM. Consider `Cc1cnc2[nH]cc(Cc3cnc(Nc4ccc(C(C)(C)C)cc4)nc3)c2c1` [Compound P-3030, (4-tert-Butyl-phenyl)-[5-(5-methyl-1H-pyrrolo[2,3-b]pyridin-3-ylmethyl)-pyrimidin-2-yl]-amine amine], for which, at TrkC kinase, the IC50 is < 0.01 µM. Turning to `Cc1cnc2[nH]cc(Cc3cnc(Nc4ccc(C(O)(C(F)(F)F)C(F)(F)F)cc4)nc3)c2c1` [Compound P-3031, 1,1,1,3,3,3-Hexafluoro-2-{4-[5-(5-methyl-1H-pyrrolo[2,3-b]pyridin-3-ylmethyl)-pyrimidin-2-ylamino]-phenyl}-propan-2-ol], the IC50 on TrkC kinase was < 0.1 µM. Regarding `Cc1cnc2[nH]cc(Cc3cnc(Nc4cc(C5CC5)n[nH]4)nc3)c2c1` [Compound P-3032, (5-Cyclopropyl-2H-pyrazol-3-yl)-[5-(5-methyl-1H-pyrrolo[2,3-b]pyridin-3-ylmethyl)-pyrimidin-2-yl]-amine], the half-maximal inhibitory concentration (IC50) at TrkC kinase was > 1 µM. Still for that read-out and setting: the value for `CSc1ccc(Nc2ncc(Cc3c[nH]c4ncc(C)cc34)cn2)cc1` [Compound P-3033, [5-(5-Methyl-1H-pyrrolo[2,3-b]pyridin-3-ylmethyl)-pyrimidin-2-yl]-(4-methylsulfanyl-phenyl)-amine] was < 0.1 µM; that for `Cc1cnc2[nH]cc(Cc3cnc(Nc4ccc(S(C)(=O)=O)cc4)nc3)c2c1` [Compound P-3034, (4-Methanesulfonyl-phenyl)-[5-(5-methyl-1H-pyrrolo[2,3-b]pyridin-3-ylmethyl)-pyrimidin-2-yl]-amine] was < 1 µM; that for `CCn1ccc(Nc2ncc(Cc3c[nH]c4ncc(C)cc34)cn2)n1` [Compound P-3035, (1-Ethyl-1H-pyrazol-3-yl)-[5-(5-methyl-1H-pyrrolo[2,3-b]pyridin-3-ylmethyl)-pyrimidin-2-yl]-amine] was < 1 µM. For the compound `CCn1cc(Nc2ncc(Cc3c[nH]c4ncc(C)cc34)cn2)cn1` [Compound P-3036, (1-Ethyl-1H-pyrazol-4-yl)-[5-(5-methyl-1H-pyrrolo[2,3-b]pyridin-3-ylmethyl)-pyrimidin-2-yl]-amine], the concentration for half-maximal inhibition (IC50) at TrkC kinase was < 1 µM.

Consider `COc1ccc(Nc2ccc(Cc3c[nH]c4ncnc(OC)c34)c(F)n2)cn1` [Compound P-4001, [6-Fluoro-5-(4-methoxy-7H-pyrrolo[2,3-d]pyrimidin-5-ylmethyl)-pyridin-2-yl]-(6-methoxy-pyridin-3-yl)-amine], for which the IC50 on TrkC kinase is < 0.01 µM. As to `COc1ccc(Nc2ccc(Cc3c[nH]c4ncnc(C)c34)c(F)n2)cn1` [Compound P-4002, [6-Fluoro-5-(4-methyl-7H-pyrrolo[2,3-d]pyrimidin-5-ylmethyl)-pyridin-2-yl]-(6-methoxy-pyridin-3-yl)-amine], the figures for the IC50 at TrkC kinase and on CYP3A4(BQ) were < 1 µM and > 10 µM, respectively. As for `CCOc1ccc(Nc2ccc(Cc3c[nH]c4ncnc(C)c34)c(F)n2)cn1` [Compound P-4006, (6-Ethoxy-pyridin-3-yl)-[6-fluoro-5-(4-methyl-7H-pyrrolo[2,3-d]pyrimidin-5-ylmethyl)-pyridin-2-yl]-amine], in the assay on BCR-FMS BaF3 cells, the “% spleen growth inhibition, Fms” value was found to be 55%. Moreover, in the assay on BCR-TRK2 BaF3 cells, the “% spleen growth inhibition, TrkB” value is listed as 21%. Moreover, the IC50 on CYP3A4(BQ) was > 10 µM. Consider `CCc1ccc(Nc2ccc(Cc3c[nH]c4ncnc(OC)c34)c(F)n2)cn1` [Compound P-4007, (6-Ethyl-pyridin-3-yl)-[6-fluoro-5-(4-methoxy-7H-pyrrolo[2,3-d]pyrimidin-5-ylmethyl)-pyridin-2-yl]-amine], for which the “% spleen growth inhibition, Fms” value in the assay with BCR-FMS BaF3 cells was found to be 28%. In addition, the “% spleen growth inhibition, TrkB” value in the assay with BCR-TRK2 BaF3 cells is recorded as 19%. The IC50 on CYP3A4(BQ) is > 10 µM. For `COc1ccc(Nc2ccc(C(=O)c3c[nH]c4ncnc(C5CC5)c34)c(F)n2)cn1` [Compound P-4022, (4-cyclopropyl-7H-pyrrolo[2,3-d]pyrimidin-5-yl)-[2-fluoro-6-(6-methoxy-pyridin-3-ylamino)-pyridin-3-yl]-methanone], in the assay on BCR-FMS BaF3 cells, the “% spleen growth inhibition, Fms” value amounted to 42%. In addition, the “% spleen growth inhibition, TrkB” value in the assay with BCR-TRK2 BaF3 cells was determined as 33%. Besides, the IC50 at CYP3A4(BQ) was > 10 µM. `Fc1nc(NC2CCC(F)(F)CC2)ccc1Cc1c[nH]c2ncnc(NCC(F)(F)F)c12` [Compound P-4128, 5-[[6-[(4,4-difluorocyclohexyl)amino]-2-fluoro-3-pyridyl]methyl]-N-(2,2,2-trifluoroethyl)-7H-pyrrolo[2,3-d]pyrimidin-4-amine]: the “% spleen growth inhibition, Fms” value in the assay on BCR-FMS BaF3 cells worked out at 15%. Moreover, the IC50 on CYP3A4(BQ) was > 10 µM. Take `Fc1nc(Nc2ccc(C3CC3)nc2)ccc1Cc1c[nH]c2ncnc(NCC(F)(F)F)c12` [Compound P-4130, 5-[[6-[(6-cyclopropyl-3-pyridyl)amino]-2-fluoro-3-pyridyl]methyl]-N-(2,2,2-trifluoroethyl)-7H-pyrrolo[2,3-d]pyrimidin-4-amine]: the “% spleen growth inhibition, Fms” value in the assay with BCR-FMS BaF3 cells was 70%. For the same compound, on CYP3A4(BQ), the IC50 is > 10 µM.

The values above are taken from patent US8901118B2, “Compounds and methods for kinase modulation, and indications therefor” (Plexxikon Inc., priority 2010, dated 2014).
